The data set deals with sugar cane varieties SP803280 and RB835486. The data set is described as follows: Glasshouse safening test: visual phytotoxicity of pre-emergent herbicides on sugar cane grown from safener-soaked single-node stem sections. Format: in vivo. As to the method: In the following examples, two commercial and contemporary Brazilian sugar cane varieties were used in the experiential testing, SP803280 and RB835486. The sugar cane propagation material was prepared using single-node stem sections approximately 8 cm in length. The stem sections were treated by soaking for about 10 seconds in a solution containing Formula A=1-[4-(N-2-methoxybenzoylsulfamoyl)phenyl]-3-methylurea (15 ml of formulated product in 500 ml water; the formulated product contained 100 grams of Formula A per liter of formulated product). Four stem segments (replicates) were planted in and covered with 1 cm of the regular live loam soil used in glasshouse screening using standard planting troughs, putting each variety in a separate trough. Seeds of one of two appropriate weeds, Euphorbia heterophylla or Brachiaria decumbens were also planted in each trough in a clump to give a measure of relative weeds control alongside crop phytotoxicity. Plants were assessed for percentage visual phytotoxicity at 7 day intervals after application (DAA) up to 35 DAA. Three herbicides, all having different modes-of-action were applied the day after planting as pre-emergent herbicide. The herbicides applied were: clomazone (Gamit®) having a DOXP mode-of-action (inhibition of the 1-desoxy-D-xylulose 5-phosphate), sufentrazone (Boral®) having a PPO mode-of-action (inhibition of protoporphyrinogen oxidase), and bicyclopyrone having an HPPD mode-of-action (inhibition of the enzyme 4-hydoxyphenylpyruvate dioxygenase). Application of each herbicide was applied at 600, 1200, 1600, and 2000 grams per hectare equivalents. Results: Shown in FIGS. 1-12 (DAA—Herbicide—Sugar Cane Variety)

The values below come from patent US20150305328A1, “METHODS OF SAFENING SUGAR CANE PLANTS WITH N-ACYLSULFAMOYLPHENYLUREAS” (SYNGENTA PARTICIPATIONS AG, priority 2012, published 2015).

In the case of `CNC(=O)Nc1ccc(S(=O)(=O)NC(=O)c2ccccc2OC)cc1` [Formula A, 1-[4-(N-2-methoxybenzoylsulfamoyl)phenyl]-3-methylurea], where the note is “both varieties of sugar cane, stem sections soaked in Formula A”, the safening of sulfentrazone entry is on record as “very effectively”. In addition, the “phytotoxicity level with sulfentrazone after Formula A treatment” value (percentage visual phytotoxicity, reduced from 80%, in certain instances) is reported as “zero”. The safening of bicyclopyrone result (stem sections soaked in Formula A, bicyclopyrone applied pre-emergent) is “strong safening”. Further, the safening of clomazone result (stem sections soaked in Formula A, clomazone applied pre-emergent) is given as “strong safening”. In addition, for the setting “with all three herbicides (clomazone, sulfentrazone, bicyclopyrone), applied pre-emergent at 600-2000 g/ha, FIGS. 1-12, 28 and 35 DAA”, the “safening effect as sugar cane propagation material applied safener” value was “clear safening effect”.
Consider `Cc1nn(-c2cc(NS(C)(=O)=O)c(Cl)cc2Cl)c(=O)n1C(F)F` [sulfentrazone, reference compound], for which the “phytotoxicity level of sulfentrazone without Formula A safening” value (sugar cane, in vivo) turned out to be 80%.
